From patent publication US7067521B2, “1-[alkyl], 1-[(heteroaryl)alkyl] and 1-[(aryl)alkyl]-7pyridinyl-imidazo[1,2-alpha]pyrimidin-5(1H)-one derivatives” (sanofi-aventis, priority 2000, dated 2006)
Where a name gives a salt, the structure may show the parent alone.

| melting point | SMILES |
| --- | --- |
| 206 to 208 °C | O=c1cc(-c2ccncc2)nc2n(CCCCc3ccccc3)ccn12 (as salt: hydrochloride) [Compound 14, 1-[4-(phenyl)butyl]-7-pyridin-4-ylimidazo[1,2-a]pyrimidin-5(1H)-one] |
| 184 to 185 °C | O=c1cc(-c2cccnc2)nc2n(CCCc3ccccc3)ccn12 (as salt: hydrochloride) [Compound 15, 1-[3-(phenyl)propyl]-7-pyridin-3-ylimidazo[1,2-a]pyrimidin-5(1H)-one] |
| 208 to 211 °C | O=C(CCn1ccn2c(=O)cc(-c3ccncc3)nc12)c1ccccc1 (as salt: hydrochloride) [Compound 23, 1-(3-phenyl-3-oxo-propyl)-7-pyridin-4-ylimidazo[1,2-a]pyrimidin-5(1H)-one] |
| 220 to 222 °C | O=c1cc(-c2ccncc2)nc2n(CC[C@H](O)C(F)(F)F)ccn12 [Compound 17, (S)-1-(4,4,4-trifluoro-3-hydroxybutyl)-7-pyridin-4-ylimidazo[1,2-a]pyrimidin-5(1H)-one] |
| 187 to 188 °C | O=c1cc(-c2ccncc2)nc2n(CC=CC(F)(F)F)ccn12 [Compound 18, 1-(4,4,4-trifluorobut-2-enyl)-7-pyridin-4-ylimidazo[1,2-a]pyrimidin-5(1H)-one] |
| 221 to 222 °C | O=c1cc(-c2ccncc2)nc2n(C=CCC(F)(F)F)ccn12 [Compound 20, 1-(4,4,4-trifluorobut-1-enyl)-7-pyridin-4-ylimidazo[1,2-a]pyrimidin-5(1H)-one] |
